Data as given in EPA's ToxRefDB 2.

Experiments:
rat [1] = conditions: Combined chronic toxicity/carcinogenicity; sprague dawley; Oral; Feed; dose end: 2 year; group: systemic; systemic / in life observation / body weight / body weight + systemic / in life observation / body weight / body weight gain + systemic / in…
rat [2] = conditions: Neurotoxicity screening battery, other, Oral, Feed, dose end: 90 day, group: cannot be grouped
mouse [3] = conditions: Subchronic oral toxicity in rodents, b6c3f1, Feed, dose end: 90 day, group: systemic, systemic / organ weight / liver / absolute + systemic / organ weight / liver / relative to body weight + systemic / organ weight / liver / …
rat [4] = conditions: Sub-acute repeat dose toxicity; other; Oral; Feed; dose end: 28 day; group: systemic; systemic / clinical chemistry / glucose / glucose + systemic / in life observation / body weight / body weight + systemic / in life …
mouse [5] = conditions: Sub-acute repeat dose toxicity, b6c3f1, Oral, Feed, dose end: 28 day, group: systemic
rat [6] = conditions: Prenatal developmental toxicity study, sprague dawley, Dermal, Topical, dose end: 15 GD, group: maternal
mouse [7] = conditions: Combined chronic toxicity/carcinogenicity, b6c3f1, Oral, Feed, dose end: 18 month, group: systemic
dog = conditions: Subchronic oral toxicity in nonrodent, beagle, Feed, dose end: 13 week, group: systemic
rat [8] = conditions: Prenatal developmental toxicity study, sprague dawley, Dermal, Topical, dose end: 15 GD
rat [9] = conditions: Subchronic dermal toxicity, other, Topical, dose end: 90 day, group: systemic, systemic / pathology gross / skin / lesion(s) (nos)
rat [10] = conditions: Prenatal developmental toxicity study, sprague dawley, Oral, Gavage/Intubation, dose end: 19 GD
rat [11] = conditions: Sub-acute dermal toxicity, Sprague-Dawley, Topical, dose end: 29 day, group: systemic, systemic / in life observation / clinical signs / anogenital staining
rat [12] = conditions: Subchronic oral toxicity in rodents, sprague dawley, Feed, dose end: 13 week, group: systemic
rat [13] = conditions: Subchronic inhalation toxicity, sprague dawley, Nose-Only, dose end: 90 day, group: systemic, systemic / pathology microscopic / nose / degeneration + systemic / pathology microscopic / nose / hyperkeratosis + systemic / pathology …
[14] = systemic / in life observation / body weight / body weight + systemic / in life observation / body weight / body weight gain + systemic / in…
[15] = systemic / pathology microscopic / kidney / hypertrophy
[16] = systemic / pathology microscopic / kidney / hypertrophy + systemic / in life observation / mortality / mortality
[17] = reproductive / reproductive performance / aborted / aborted + reproductive / reproductive performance / resorptions / resorptions + systemic…
[18] = systemic / in life observation / clinical signs / desquamation + systemic / in life observation / clinical signs / urine, discoloration
[19] = systemic / pathology microscopic / liver / hepatocellular adenoma + systemic / pathology microscopic / liver / hepatocellular carcinoma + …
[20] = systemic / hematology / platelet / platelet
[21] = systemic / hematology / platelet / platelet + systemic / in life observation / body weight / body weight gain + systemic / clinical …
[22] = group: developmental, developmental / developmental malformation / bone / absent + developmental / developmental malformation / bone / fused + developmental / …
[23] = group: maternal, reproductive / reproductive performance / resorptions / resorptions + systemic / in life observation / body weight / body weight gain + …
[24] = group: maternal, systemic / in life observation / clinical signs / desquamation
[25] = group: developmental, systemic / in life observation / body weight / fetal weight
[26] = group: developmental, systemic / in life observation / body weight / fetal weight + developmental / developmental malformation / bone / bipartite ossification + …
[27] = group: maternal, systemic / in life observation / clinical signs / salivation
[28] = group: maternal, systemic / in life observation / clinical signs / salivation + reproductive / reproductive performance / resorptions / resorptions + …
[29] = systemic / pathology microscopic / spinal cord / vacuolization + systemic / pathology microscopic / brain / vacuolization
[30] = systemic / pathology microscopic / spinal cord / vacuolization + systemic / pathology microscopic / brain / vacuolization + systemic / organ…

CN1CCCC1=O [N-Methyl-2-pyrrolidone]
LEL (rat [1]): 678 mg/kg/day | LOAEL (rat [1]): > 678 mg/kg/day | NEL (rat [1]): 207 mg/kg/day | NOAEL (rat [1]): ≥ 678 mg/kg/day | LOAEL (rat [2]; systemic / in life observation / body weight / body weight + systemic / in life observation / body weight / body weight gain): 433 mg/kg/day | LEL (rat [2]; [14]): 433 mg/kg/day | NEL (rat [2]; [14]): 169 mg/kg/day | NOAEL (rat [2]; [14]): 169 mg/kg/day | LEL (mouse [3]): 619 mg/kg/day | LOAEL (mouse [3]): 619 mg/kg/day | NEL (mouse [3]): 277 mg/kg/day | NOAEL (mouse [3]): 277 mg/kg/day | LEL (rat [4]): 1230 mg/kg/day | LOAEL (rat [4]): 1230 mg/kg/day | NEL (rat [4]): 429 mg/kg/day | NOAEL (rat [4]): 429 mg/kg/day | LEL (mouse [5]; [15]): 2130 mg/kg/day | LOAEL (mouse [5]; [15]): 2130 mg/kg/day | NEL (mouse [5]; [16]): 720 mg/kg/day | NOAEL (mouse [5]; [16]): 720 mg/kg/day | LOAEL (rat [6]; [17]): > 2500 mg/kg/day | NOAEL (rat [6]; [17]): ≥ 2500 mg/kg/day | LEL (rat [6]; [18]): 500 mg/kg/day | NEL (rat [6]; [18]): < 500 mg/kg/day | LEL (mouse [7]; systemic / organ weight / liver / absolute + systemic / organ weight / liver / relative to body weight + systemic / pathology microscopic / …): 173 mg/kg/day | LOAEL (mouse [7]; [19]): > 1090 mg/kg/day | NEL (mouse [7]; [19]): 89 mg/kg/day | NOAEL (mouse [7]; [19]): ≥ 1090 mg/kg/day | LEL (dog; [20]): 25 mg/kg/day | NEL (dog; [20]): < 25 mg/kg/day | LOAEL (dog; [21]): > 250 mg/kg/day | NOAEL (dog; [21]): ≥ 250 mg/kg/day | LEL (rat [8]; [22]): 750 mg/kg/day | LOAEL (rat [8]; [22]): > 750 mg/kg/day | NEL (rat [8]; [22]): 237 mg/kg/day | NOAEL (rat [8]; [22]): ≥ 750 mg/kg/day | LOAEL (rat [8]; [23]): > 750 mg/kg/day | NOAEL (rat [8]; [23]): ≥ 750 mg/kg/day | LEL (rat [8]; [24]): 75 mg/kg/day | NEL (rat [8]; [24]): < 75 mg/kg/day

N#Cc1c(-c2ccc(Cl)cc2)[nH]c(C(F)(F)F)c1Br [Tralopyril]
LEL (rat [9]): 300 mg/kg/day | LOAEL (rat [9]): 300 mg/kg/day | NEL (rat [9]): 100 mg/kg/day | NOAEL (rat [9]): 100 mg/kg/day | LEL (rat [10]; [25]): 10 mg/kg/day | LOAEL (rat [10]; [25]): 10 mg/kg/day | NEL (rat [10]; [26]): 5 mg/kg/day | NOAEL (rat [10]; [26]): 5 mg/kg/day | LEL (rat [10]; [27]): 10 mg/kg/day | LOAEL (rat [10]; [27]): 10 mg/kg/day | NEL (rat [10]; [28]): 5 mg/kg/day | NOAEL (rat [10]; [28]): 5 mg/kg/day | LEL (rat [11]): 1000 mg/kg/day | LOAEL (rat [11]): > 1000 mg/kg/day | NEL (rat [11]): 300 mg/kg/day | NOAEL (rat [11]): ≥ 1000 mg/kg/day | LOAEL (rat [12]; [29]): 6.3 mg/kg/day | NOAEL (rat [12]; [29]): < 6.3 mg/kg/day | LEL (rat [12]; [30]): 6.3 mg/kg/day | NEL (rat [12]; [30]): < 6.3 mg/kg/day | LEL (rat [13]): 1.4 ppm | LOAEL (rat [13]): 1.4 ppm | NEL (rat [13]): < 1.4 ppm | NOAEL (rat [13]): < 1.4 ppm
